In brackets after ≈: the same amount, converted by molar mass. Read-outs that look alike come from different tables or passages of the source.
Key:
[1] = tested on: VRE EF379; experiment: microbroth antibiotic susceptibility testing, VRE; type: cell-based, vancomycin-resistant Enterococcus faecium; conditions: Enterococcus, VRE; for IC50: read-out: VRE IC50; for MIC: read-out: VRE MIC
Procedure: (§1) All microbroth antibiotic susceptibility testing was carried out in triplicate in 96-well plates in accordance with Clinical Laboratory Standards Institute testing standards (NCCLS, [2003]) using the following pathogens: MRSA ATCC 33591 (MRSA), S. warneri ATCC 17917, VRE EF379 (VRE), Pseudomonas aeruginosa ATCC 14210, Proteus vulgaris ATCC 12454, and Candida albicans ATCC 14035. Extract fractions were assayed at 250 µg/mL while pure compounds were serially diluted to generate a range of 12 concentrations (128–0.0625 µg/mL) in a final well volume concentration of 2% DMSO(aq). […] The optical density of the plate was recorded using a Thermo Scientific Varioskan Flash plate reader at 600 nm at time zero and then again after incubation of the plates for 22 h at 37°C. After subtracting the time zero OD600 from the final reading, the percentages of microorganism survival relative to vehicle control wells were calculated.

[2] = tested on: MRSA ATCC 33591; experiment: microbroth antibiotic susceptibility testing, MRSA; type: cell-based, methicillin-resistant Staphylococcus aureus; conditions: Staphylococcus aureus; for IC50: read-out: MRSA IC50; for MIC: read-out: MRSA MIC
Procedure: as §1

[3] = tested on: Pseudomonas aeruginosa ATCC 14210; experiment: microbroth antibiotic susceptibility testing, P. aeruginosa; type: cell-based; conditions: Pseudomonas aeruginosa, ATCC14210; triplicate, averaged; 22 h at 37°C
Procedure: as §1

[4] = tested on: Human foreskin BJ fibroblast cells (ATCC CRL-2522); experiment: cytotoxicity assay (Alamar blue), fibroblasts; type: cell-based; conditions: for IC50: Homo sapiens, 24 h, read-out: Fibroblast IC50
Procedure: (§2) Human foreskin BJ fibroblast cells (ATCC CRL-2522), adult human epidermal keratinocytes (HEKa), and human breast adenocarcinoma cells (ATCC HTB-26) were grown to 80% confluency (growth conditions are provided in Supplementary Materials and Methods), the cells were counted, diluted, and plated into treated 96-well cell culture plates. The BJ fibroblast and HEKa cells were plated at a cell density of 10,000 cells per well and the HTB-26 cells were plated at cell density of 5000 cells per well in 90 µL of respective growth medium (without the addition of antibiotics) and incubated for 24 h to allow cells to adhere to the plates before treatment. Pure compounds were tested in triplicate in serial dilutions of eight concentrations ranging from 128 µg/mL to 1 µg/mL per well (final well volume of 100 µL, 1% DMSO per well). Each of the cell lines were incubated at 37°C in a humidified atmosphere of 5% CO2; the BJ fibroblast and HEKa cells for 24 h and the HTB-26 cells for 72 h. Each plate contained four uninoculated positive controls, four untreated negative controls, and one column containing a concentration range of zinc pyrithione or doxorubicin. Alamar blue was added, 24 h after the treatment, and fluorescence was monitored using a Thermo Scientific Varioskan Flash plate reader at 560/12 excitation, 590 nm emission both at time zero and 4 h after Alamar blue addition. The inferred percentage of cell viability relative to vehicle control wells were calculated after subtracting the time zero emission 590 nm measurement from the final reading and the IC50 was determined.

[5] = tested on: Candida albicans ATCC 14035; experiment: microbroth susceptibility testing, C. albicans; type: cell-based; conditions: for IC50 / MIC: Candida albicans, ATCC14035
Procedure: as §1

[6] = tested on: Proteus vulgaris ATCC 12454; experiment: microbroth antibiotic susceptibility testing, P. vulgaris; type: cell-based; conditions: Proteus vulgaris, ATCC12454; triplicate, averaged; 22 h at 37°C
Procedure: as §1, with “14035.” for “14035. Extract fractions were assayed at 250 µg/mL while pure compounds were serially diluted to generate a range of 12 concentrations (128–0.0625 µg/mL) in a final well volume concentration of 2% DMSO(aq).”

[7] = tested on: human breast adenocarcinoma cells (ATCC HTB-26); experiment: cytotoxicity assay (Alamar blue), HTB-26; type: cell-based; conditions: for IC50: Homo sapiens, HTB26, 72 h, read-out: HTB-26 IC50
Procedure: as §2

[8] = tested on: adult human epidermal keratinocytes (HEKa); experiment: cytotoxicity assay (Alamar blue), keratinocytes; type: cell-based; conditions: Homo sapiens; HeKa cells, 24 h; read-out: Keratinocyte IC50
Procedure: as §2

[9] = tested on: S. warneri ATCC 17917; experiment: microbroth antibiotic susceptibility testing, S. warneri; type: cell-based; conditions: Staphylococcus warneri; for IC50: read-out: S. warneri IC50; for MIC: read-out: S. warneri MIC
Procedure: as §1

[10] = tested on: erythropoietin gene expression; set-up: method as in Cai et al. [1998]; conditions: at a concentration of 1–1.6 µM; ref Cai et al. [1998]; cited from earlier work
[11] = triplicate, averaged, 22 h at 37°C
[12] = HTB-26 breast cancer cells, 72 h
[13] = ATCC17917, triplicate, averaged, 22 h at 37°C
[14] = at a concentration of 128 μg/mL

IC50 [1, 11]	MIC [1, 11]	IC50 [2, 11]	MIC [2, 11]	IC50 [3]	MIC [3]	IC50 [5, 11]	MIC [5, 11]	IC50 [6]	MIC [6]	IC50 [9, 13]	MIC [9, 13]	SMILES	IC50 ([4]; BJ cells)	HTB-26 MIC [7, 12]	IC50 [7, 12]	IC50 [8]	other results
> 128 µg/mL	> 128 µg/mL	> 128 µg/mL	> 128 µg/mL	> 128 µg/mL	> 128 µg/mL	> 128 µg/mL	> 128 µg/mL	> 128 µg/mL	> 128 µg/mL	> 128 µg/mL	> 128 µg/mL	Cc1cc(CO)c2c(=O)c3c(O)cccc3oc2c1 [1-hydroxy-6-methyl-8-hydroxymethylxanthone]	29 µg/mL (≈ 113 µM)	32 µg/mL	24 µg/mL (≈ 93.7 µM)	12 µg/mL (≈ 46.8 µM)	
> 128 µg/mL	> 128 µg/mL	> 128 µg/mL	> 128 µg/mL	> 128 µg/mL	> 128 µg/mL	> 128 µg/mL	> 128 µg/mL	> 128 µg/mL	> 128 µg/mL	> 128 µg/mL	> 128 µg/mL	Cc1cc(O)c2c(c1)C(=O)c1cccc(O)c1C2=O [Chrysophanol, chrysophanol]	> 64 µg/mL	>64 µg/mL	> 64 µg/mL	> 64 µg/mL	activity against fibroblast cell line [4, 14]: inactive; activity against HTB-26 cell line [7, 14]: inactive
44 µg/mL (≈ 84.5 µM)	> 64 µg/mL	48 µg/mL (≈ 92.2 µM)	64 µg/mL (≈ 123 µM)	> 128 µg/mL	> 128 µg/mL	> 64 µg/mL	> 64 µg/mL	> 64 µg/mL	> 64 µg/mL	33 µg/mL (≈ 63.4 µM)	64 µg/mL (≈ 123 µM)	Cc1cc(=O)c(O)cc2c1C[C@H]1CC(C)(C)/C=C/C[C@@]3(C)Oc4cc(O)cc(C)c4C[C@@H]3C[C@H](O)[C@]1(C)O2 [Epolone A, epolone A]	14 µg/mL (≈ 26.9 µM)			13 µg/mL (≈ 25 µM)	induction of erythropoietin gene expression [10]: five-fold
52 µg/mL (≈ 135 µM)	> 64 µg/mL	48 µg/mL (≈ 125 µM)	64 µg/mL (≈ 166 µM)	> 128 µg/mL	> 128 µg/mL	43 µg/mL (≈ 112 µM)	64 µg/mL (≈ 166 µM)	> 64 µg/mL	> 64 µg/mL			C/C1=C\C(C)(C)/C=C/C[C@@]2(C)Oc3cc(O)c(=O)cc(C)c3CC2C[C@@H](O)C1 (some centres unmarked) [Epolone B, epolone B]	> 128 µg/mL			50 µg/mL (≈ 130 µM)	induction of erythropoietin gene expression [10]: five-fold; effect against C. albicans [5]: inhibitory effect
0.5 µg/mL (≈ 0.608 µM)	2 µg/mL (≈ 2.43 µM)											CO[C@H]1/C=C/O[C@@]2(C)Oc3c(C)c(O)c4c(O)c(c(/C=N/N5CCN(C)CC5)c(O)c4c3C2=O)NC(=O)/C(C)=C\C=C\[C@H](C)[C@H](O)[C@@H](C)[C@@H](O)[C@@H](C)[C@H](OC(C)=O)[C@@H]1C [Rifampicin, rifampicin, reference compound]					

Continued, compound first:

SMILES	IC50 [1, 11]	MIC [1, 11]	IC50 [2, 11]	MIC [2, 11]	IC50 [3]	MIC [3]	IC50 [5, 11]	MIC [5, 11]	IC50 [6]	MIC [6]	IC50 [9, 13]	MIC [9, 13]	IC50 ([4]; BJ cells)	HTB-26 MIC [7, 12]	IC50 [7, 12]	IC50 [8]	other results
C[C@H]1CCC/C=C/[C@@H]2C[C@H](O)C[C@H]2[C@H](O)/C=C/C(=O)O1 [Brefeldin A, brefeldin A]	> 128 µg/mL	> 128 µg/mL	> 128 µg/mL	> 128 µg/mL	> 128 µg/mL	> 128 µg/mL	20 µg/mL (≈ 71.3 µM)	128 µg/mL (≈ 457 µM)	> 128 µg/mL	> 128 µg/mL	> 128 µg/mL	> 128 µg/mL	> 64 µg/mL		> 0.5 µg/mL	0.5 µg/mL (≈ 1.78 µM)	effect against C. albicans [5]: antifungal effect
Cc1cc(O)c2c(c1)C(C1c3cccc(O)c3C(=O)c3c(O)cc(C)cc31)c1cccc(O)c1C2=O (centres unmarked) [Chrysophanol bianthrone, chrysophanol bianthrone]	128 µg/mL (≈ 268 µM)	> 128 µg/mL	> 128 µg/mL	> 128 µg/mL	> 128 µg/mL	> 128 µg/mL	> 128 µg/mL	> 128 µg/mL	> 128 µg/mL	> 128 µg/mL	> 128 µg/mL	> 128 µg/mL	> 64 µg/mL	64 µg/mL	5 µg/mL (≈ 10.4 µM)	> 64 µg/mL	
COc1cccc2c1C(=O)c1c(O)c3c(c(O)c1C2=O)C[C@@](O)(C(=O)CO)C[C@@H]3O[C@H]1C[C@H](N)[C@H](O)[C@H](C)O1 [Doxorubromycin, doxorubicin, reference compound]														>16 µg/mL	2.5 µg/mL (≈ 4.6 µM)		
CC(C)C12SSSSC3(C(=O)N1C)C1OC45C(=O)N(C)C(CO)C(=O)N4C4Nc6ccccc6C4(C5O)C14c1ccccc1NC4N3C2=O (centres unmarked) [Leptosin J, leptosin J]					> 128 µg/mL	> 128 µg/mL	> 128 µg/mL	> 128 µg/mL	> 128 µg/mL	> 128 µg/mL	9 µg/mL (≈ 12.1 µM)	64 µg/mL (≈ 86.4 µM)		0.5 µg/mL		> 0.5 µg/mL	IC50 ([1]; 22 h): 128 µg/mL (≈ 173 µM); MIC ([1]; 22 h): > 128 µg/mL; IC50 ([2]; 22 h): 0.7 µg/mL (≈ 0.945 µM); MIC ([2]; 22 h): 2 µg/mL (≈ 2.7 µM); IC50 ([4]; BJ): 0.5 µg/mL (≈ 0.675 µM); IC50 [7]: > 0.5 µg/mL
C[C@@H]1[C@H](O)[C@@H](C)/C=C/C=C/CC/C=C/C=C/C=C/C=C/C(O[C@H]2O[C@H](C)[C@@H](O)[C@H](N)[C@@H]2O)CC2O[C@](O)(CC(O)C(O)CCC(O)CC(O)CC(O)CC(=O)O[C@H]1C)CC(O)C2C(=O)O (some centres unmarked) [Nystatin, nystatin, reference compound]																	C. albicans IC50 [5, 11]: 0.92 µg/mL; C. albicans MIC [5, 11]: 1.6 µg/mL
COC1=C(Cl)C(C)(O)c2c(oc(=O)c3c(O)cc(OC)cc23)C1=O (centres unmarked) [TMC-264]	100 µg/mL (≈ 284 µM)	> 128 µg/mL	14 µg/mL (≈ 39.7 µM)	64 µg/mL (≈ 181 µM)	> 128 µg/mL	> 128 µg/mL	> 128 µg/mL	> 128 µg/mL	> 128 µg/mL	> 128 µg/mL	23 µg/mL (≈ 65.2 µM)	64 µg/mL (≈ 181 µM)	13 µg/mL (≈ 36.9 µM)	8 µg/mL	2.8 µg/mL (≈ 7.94 µM)	1 µg/mL (≈ 2.84 µM)	
CN[C@H](CC(C)C)C(=O)N[C@H]1C(=O)N[C@@H](CC(N)=O)C(=O)N[C@H]2C(=O)N[C@H]3C(=O)N[C@H](C(=O)N[C@H](C(=O)O)c4cc(O)cc(O)c4-c4cc3ccc4O)[C@H](O)c3ccc(c(Cl)c3)Oc3cc2cc(c3O[C@@H]2O[C@H](CO)[C@@H](O)[C@H](O)[C@H]2O[C@H]2C[C@](C)(N)[C@H](O)[C@H](C)O2)Oc2ccc(cc2Cl)[C@H]1O [Vancomycin, vancomycin, reference compound]																	IC50 ([2]; 22 h): 0.88 µg/mL (≈ 0.607 µM); MIC ([2]; 22 h): 1.6 µg/mL (≈ 1.1 µM); IC50 ([9]; ATCC17917, 22 h): 0.75 µg/mL (≈ 0.518 µM); MIC ([9]; ATCC17917, 22 h): 1 µg/mL (≈ 0.69 µM)
